Reference: paper PMC6234764, “First Insights Into Within Host Translocation of the Bacillus cereus Toxin Cereulide Using a Porcine Model” (Frontiers in Microbiology, 2018)

Assay: Cereulide in blood, SIDA-MS
Format: in vivo, pig
Protocol: A total of four experiments, each including four treated animals and one control pig, was performed to investigate the action of cereulide on piglets after oral intake of cereulide. Pigs were either challenged orally with a single dose (acute trials) or with daily over a period of 7 days (chronic trial) (see Table 1). One hour before cereulide toxin administration blood samples were taken by puncturing the anterior Vena cava and piglets were weighed for calculation of the cereulide concentration (t = 0 h). In the intoxication experiment with 150 μg kg^-1 blood samples were taken 68 h before the experiment to reduce the distress for the animals at the start day of the experiments. Blood-chemical, immunological, and histological analyses of selected organs as well as quantification of cereulide in organs, tissues, urine and feces were carried out as detailed below.
On body weight calculated amounts of cereulide, dissolved in ethanol, were mixed with milk (UHT milk; 3.5% fat), and fed to four piglets. Control piglets were fed with milk supplemented with similar ethanol concentrations as the experimental piglets. The experiment started after the uptake of the whole milk cereulide mixture. The milk was checked for bacterial contamination prior to the experiment.
After oral administration of cereulide, piglets were monitored for unusual behavior and examined physically with special respect on rectal body temperature as well as pulse and respiration rate, every 2–3 h. Blood samples were taken from the Vena cava cranialis. Urine and feces were collected during the whole experiment and stored at -80°C. After the experiment pigs were anaesthetized by intramuscular injection of a bolus of ketamine (10 mg kg^-1) and azaperone (1.3 mg kg^-1). When sedation was deep enough cerebrospinal fluid (liquor) was taken by lumbar puncture. Finally, pigs were euthanized by intracardial injection of T61®. Animals were then necropsied and parts of the following organs, tissues or body fluids were taken for SIDA-MS analysis: liver, lung, heart, kidney, brain, spleen, small and large intestine, lymph nodes, gastric as well as intestinal contents, skeletal muscle, and abdominal and subcutaneous fat. Samples of liver, lung, heart, kidney, brain, spleen, small, and large intestine were collected for histological analysis.
Collected blood samples, urine, feces, tissue and organs were freeze dried and stored at -80°C until analysis. Before extraction, liquid nitrogen was added to frozen samples and they were crushed to a powder using a mortar. […] Finally, samples were membrane filtrated (0.2 μm; PTFE membrane; Phenomenex, Aschaffenburg, Germany) and analyzed by means of LC-MS/MS as described previously ([Bauer et al., 2010]). […]

CC(C)C[C@H]1OC(=O)[C@H](C(C)C)NC(=O)[C@H](C(C)C)OC(=O)[C@@H](C)NC(=O)[C@@H](CC(C)C)OC(=O)[C@H](C(C)C)NC(=O)[C@H](C(C)C)OC(=O)[C@@H](C)NC(=O)[C@@H](CC(C)C)OC(=O)[C@H](C(C)C)NC(=O)[C@H](C(C)C)OC(=O)[C@@H](C)NC1=O [cereulide]
Detectability of cereulide in blood (single oral dose 150 μg kg^-1, after 24–48 h): detectable in three out of four pigs
Highest concentration of cereulide in the blood (single oral dose 150 μg kg^-1, one animal): 45 ng cereulide mL^-1
Time of first detection in blood (single oral dose 150 μg kg^-1, pig with highest blood levels): 8 h
Maximum cereulide in blood after 24 h (single oral dose 150 μg kg^-1, pig with lowest abdominal fat level, 24 h): 45 ng cereulide mL^-1
